{
  "source": "paper PMC8745345",
  "about": "“Hydroxy Pentacyclic Triterpene Acid, Kaempferol, Inhibits the Human 5-Hydroxytryptamine Type 3A Receptor Activity” (International Journal of Molecular Sciences, 2022)",
  "key": {"[1]": {"biological_target": "T1, human 5-HT3A receptor D177A+F199A double mutant (Homo sapiens, UniProt P46098, D199A/F221A)", "T1 sequence (P46098 24-478 D199A/F221A)": "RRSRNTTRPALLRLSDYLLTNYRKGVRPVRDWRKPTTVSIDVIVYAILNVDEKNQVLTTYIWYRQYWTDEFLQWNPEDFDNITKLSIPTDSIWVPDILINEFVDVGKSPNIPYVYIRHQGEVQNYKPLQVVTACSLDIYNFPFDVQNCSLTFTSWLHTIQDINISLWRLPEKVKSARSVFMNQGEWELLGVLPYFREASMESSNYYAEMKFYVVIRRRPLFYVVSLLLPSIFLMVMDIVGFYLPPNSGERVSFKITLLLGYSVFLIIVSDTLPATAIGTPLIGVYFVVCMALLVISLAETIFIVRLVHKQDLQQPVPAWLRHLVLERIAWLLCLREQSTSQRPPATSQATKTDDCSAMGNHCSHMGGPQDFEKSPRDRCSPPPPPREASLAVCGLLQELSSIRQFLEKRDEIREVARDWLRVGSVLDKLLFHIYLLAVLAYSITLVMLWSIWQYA", "test": "Two-electrode voltage clamp, I5-HT inhibition, D177A+F199A double mutant", "format": "cell-based", "protocol": "Xenopus oocytes were used in this study as cells for expression of human 5-HT3A receptor. All female frogs used in this experiment were obtained from the Korean Xenopus Resource Center for Research (KXRCR000001). […] Xenopus oocytes were extracted during ice incubation state and isolated as single oocytes using collagenase II (2 mg/mL) in OR2 buffer (82.5 mM NaCl, 2 mM KCl, 1 mM MgCl2, 5 mM HEPES, pH 7.4). Isolated oocytes were incubated with ND96 incubation buffer (96 mM NaCl, 2 mM KCl, 1 mM MgCl2, 1.8 mM CaCl2, 5 mM HEPES, 2.5 mM sodium pyruvate, and 50 mg/mL gentamycin, pH 7.4) at 18 °C until the experiment was performed. Human 5-HT3A receptor mRNA was injected into oocytes using a nanoinjector (Drummond Scientific, Broomall, PA, USA) with a mineral-filled 10 μL microdispenser (VWR, Piscataway, NJ, USA).\nTo confirm the KAE activity on the human 5-HT3A receptor, a two-electrode voltage clamp (OC-725C; Warner Instruments, Hamden, CT, USA) with a Digitata 1550A was used. For the experiment, induced-inward current was converted to digital data with pClamp 10 software (Axon Instruments, Union City, CA, USA). All experiments were performed at room temperature using an oocyte clamp equipped with Digidata. The membrane holding potential was −80 mV.\nThe voltage relationship experiment for confirming the relationship between induce-inward current and voltage, the voltage was varied from −80 mV to +60 mV using a ramp protocol. Each microelectrode was filled with 3 M KCl having a resistance of 0.2 MΩ. Serotonin and KAE applied in the experiment were diluted in ND96 bath solution (96 mM NaCl, 2 mM KCl, 1 mM MgCl2, 1.8 mM CaCl2, and 5 mM HEPES, pH 7.5) to specified concentration. The rate of application of the reagent was 2 mL per minute. All recording data were analyzed using Clampfit 9.0 (Molecular Devices, San Jose, CA, USA).\nPoint mutation was performed using Pfu DNA polymerase (Quikchange II Site-Directed Mutagenesis Kit). Chimeric primer design for PCR was performed under appropriate primer design guidelines. To remove methylated cDNA, Dpn I was used. Transformation of the mutated DNA used pGEM vector. pDNA was purified using a miniprep protocol. […]"}, "[2]": {"biological_target": "T2, human 5-HT3A receptor I180A mutant (Homo sapiens, UniProt P46098, V202A)", "T2 sequence (P46098 24-478 V202A)": "T1 sequence (P46098 24-478 D199A/F221A) with A176D, V179A, A198F", "test": "Two-electrode voltage clamp, I5-HT inhibition, I180A mutant", "format": "cell-based", "procedure": "Human 5-HT3A receptor cDNA was linearized using restriction enzyme XhoI. In vitro transcription was performed using an mMESSAGE mMACHINE T7 Transcription Kit (Thermo Fisher Scientific, Waltham, MA, USA). The final mRNA product was dissolved in 1X Diethyl Pyrocarbonate (RNase-free water) at a final concentration of 1 μg/μL and kept in a deep-freezer at −80 °C until used.\nXenopus oocytes were used in this study as cells for expression of human 5-HT3A receptor. All female frogs used in this experiment were obtained from the Korean Xenopus Resource Center for Research (KXRCR000001). Xenopus management followed the guideline of Chonnam National University institution guidelines (CNU IACUC-YB-2016-07, July 2016). Xenopus oocytes were extracted during ice incubation state and isolated as single oocytes using collagenase II (2 mg/mL) in OR2 buffer (82.5 mM NaCl, 2 mM KCl, 1 mM MgCl2, 5 mM HEPES, pH 7.4). Isolated oocytes were incubated with ND96 incubation buffer (96 mM NaCl, 2 mM KCl, 1 mM MgCl2, 1.8 mM CaCl2, 5 mM HEPES, 2.5 mM sodium pyruvate, and […], pH 7.4) at 18 °C until the experiment was performed. Human 5-HT3A receptor mRNA was injected into oocytes using a nanoinjector (Drummond Scientific, Broomall, PA, USA) with a mineral-filled 10 μL microdispenser (VWR, Piscataway, NJ, USA).\nTo confirm the KAE activity on the human 5-HT3A receptor, a two-electrode voltage clamp (OC-725C; Warner Instruments, Hamden, CT, USA) with a Digitata 1550A was used. For the experiment, induced-inward current was converted to digital data with pClamp 10 software (Axon Instruments, Union City, CA, USA). […]\nThe voltage relationship experiment for confirming the relationship between induce-inward current and voltage, the voltage was varied from −80 mV to +60 mV using a ramp protocol. […] All recording data were analyzed using Clampfit 9.0 (Molecular Devices, San Jose, CA, USA). […]\nAll presented experiments were performed at least three times for scientific verification. […] Induced-inward current data were analyzed with SigmaPlot 10.0 software (Systat Software, Inc., San Jose, CA, USA). […]"}},
  "note": "Positions count from the first letter of the chain named.",
  "data": [
    {"molecule": "O=c1c(O)c(-c2ccc(O)cc2)oc2cc(O)cc(O)c12", "note": "[KAE, kaempferol]", "values": [
      {"measurement": "n (Hill coefficient)", "setting": "[1]; D177A+F199A, −80 mV", "value": "1.3 ± 0.4"},
      {"measurement": "IC50", "setting": "[1]; D177A+F199A, −80 mV, Table 1", "value": "42.9 ± 10.2", "unit": "µM"},
      {"measurement": "Vmax", "setting": "[1]; D177A+F199A, −80 mV, Table 1", "value": "11.9 ± 1.2", "unit": "%"},
      {"measurement": "Imax", "setting": "[1]; D177 and F199 double-mutant, Figure 5D", "value": "11.9 ± 1.2", "unit": "%"},
      {"measurement": "IC50", "setting": "[2]", "value": "45.5 ± 12.9", "unit": "µM"},
      {"measurement": "n (Hill coefficient)", "setting": "[2]; I180A, −80 mV", "value": "1.8 ± 0.6"},
      {"measurement": "Emax", "setting": "[2]; I180A, −80 mV, read-out: Vmax", "value": "89.5 ± 12.1", "unit": "%"}
    ]}
  ]
}
